Test system: HEK293 uptake transporter overexpressing and control cells
Assay: Resazurin-based cytotoxicity assay
Experimental: The cells were plated on 96-well plates. Prior to the experiment the medium was removed, and cells were rinsed with 2×100 μL of the respective buffer for uptake transporter transfected and control cell lines.

[1] = MATE1 assay, 5.00 μM, incubation 30 + 3 min
[2] = MATE1 assay, 10.00 μM, incubation 30 + 3 min
[3] = MATE1 assay, 20.00 μM, incubation 30 + 3 min
[4] = MATE1 assay, 30.00 μM, incubation 30 + 3 min
[5] = MATE2-K assay, 5.00 μM, incubation 30 + 1 min
[6] = MATE2-K assay, 10.00 μM, incubation 30 + 1 min
[7] = MATE2-K assay, 20.00 μM, incubation 30 + 1 min
[8] = MATE2-K assay, 30.00 μM, incubation 30 + 1 min
[9] = OAT1 assay, 5.00 μM, incubation 30 + 2 min
[10] = OAT1 assay, 10.00 μM, incubation 30 + 2 min
[11] = OAT1 assay, 20.00 μM, incubation 30 + 2 min
[12] = OAT1 assay, 30.00 μM, incubation 30 + 2 min
[13] = OAT3 assay, 5.00 μM, incubation 30 + 1 min
[14] = OAT3 assay, 10.00 μM, incubation 30 + 1 min
[15] = OAT3 assay, 20.00 μM, incubation 30 + 1 min
[16] = OAT3 assay, 30.00 μM, incubation 30 + 1 min
[17] = OATP1B1 assay, 5.00 μM, incubation 30 + 3 min
[18] = OATP1B1 assay, 10.00 μM, incubation 30 + 3 min
[19] = OATP1B1 assay, 20.00 μM, incubation 30 + 3 min
[20] = OATP1B1 assay, 30.00 μM, incubation 30 + 3 min
[21] = OATP1B3 assay, 5.00 μM, incubation 30 + 2 min
[22] = OATP1B3 assay, 10.00 μM, incubation 30 + 2 min
[23] = OATP1B3 assay, 20.00 μM, incubation 30 + 2 min
[24] = OATP1B3 assay, 30.00 μM, incubation 30 + 2 min
[25] = OCT1 assay, 5.00 μM, incubation 30 + 3 min
[26] = OCT1 assay, 10.00 μM, incubation 30 + 3 min
[27] = OCT1 assay, 20.00 μM, incubation 30 + 3 min
[28] = OCT1 assay, 30.00 μM, incubation 30 + 3 min
[29] = OCT2 assay, 5.00 μM, incubation 30 + 1 min
[30] = OCT2 assay, 10.00 μM, incubation 30 + 1 min
[31] = OCT2 assay, 20.00 μM, incubation 30 + 1 min
[32] = OCT2 assay, 30.00 μM, incubation 30 + 1 min

For OC1(c2ccc(Cl)cc2)c2ccccc2C2=NCCN21 (stereo not drawn) [Compound A, 5-(4-chlorophenyl)-2,3-dihydroimidazo[1,2-b]isoindol-5-ol, reference compound], the “Cell viability (cytotoxic effect)” value (HEK293-MATE1-LV, -MATE2-K-LV, -OAT1-LV, -OAT3-LV, -OATP1B1-LV, -OATP1B3-LV, -OCT1-LV, -OCT2-LV and control cells) was “did not reduce the cell viability”, the “Relative cell viability, control cells” value [1] was 99.21 ± 1.16 % of control and the “Relative cell viability, transfected cells” value [1] was 100.44 ± 1.23 % of control. The “Relative cell viability, control cells” value [2] was 99.15 ± 1.14 % of control, the “Relative cell viability, transfected cells” value [2] was 100.94 ± 1.13 % of control and the “Relative cell viability, control cells” value [3] was 99.30 ± 1.01 % of control. The “Relative cell viability, transfected cells” value [3] was 101.82 ± 1.13 % of control, the “Relative cell viability, control cells” value [4] was 99.32 ± 1.20 % of control and the “Relative cell viability, transfected cells” value [4] was 100.38 ± 1.18 % of control. The “Relative cell viability, control cells” value [5] was 98.30 ± 0.72 % of control, the “Relative cell viability, transfected cells” value [5] was 100.17 ± 1.24 % of control and the “Relative cell viability, control cells” value [6] was 101.55 ± 0.74 % of control. For the same molecule, the “Relative cell viability, transfected cells” value [6] was 99.35 ± 0.57 % of control, the “Relative cell viability, control cells” value [7] was 99.74 ± 0.77 % of control and the “Relative cell viability, transfected cells” value [7] was 98.93 ± 1.00 % of control. For the same molecule, the “Relative cell viability, control cells” value [8] was 99.57 ± 0.77 % of control, the “Relative cell viability, transfected cells” value [8] was 95.00 ± 1.36 % of control and the “Relative cell viability, control cells” value [9] was 99.60 ± 2.60 % of control. For the same molecule, the “Relative cell viability, transfected cells” value [9] was 101.06 ± 0.56 % of control, the “Relative cell viability, control cells” value [10] was 102.26 ± 1.66 % of control and the “Relative cell viability, transfected cells” value [10] was 100.28 ± 0.26 % of control. For the same molecule, the “Relative cell viability, control cells” value [11] was 103.10 ± 2.01 % of control, the “Relative cell viability, transfected cells” value [11] was 98.34 ± 0.33 % of control and the “Relative cell viability, control cells” value [12] was 102.66 ± 2.43 % of control. The “Relative cell viability, transfected cells” value [12] was 93.28 ± 2.26 % of control, the “Relative cell viability, control cells” value [13] was 98.41 ± 1.36 % of control and the “Relative cell viability, transfected cells” value [13] was 97.17 ± 0.40 % of control. For the same molecule, the “Relative cell viability, control cells” value [14] was 96.14 ± 2.42 % of control, the “Relative cell viability, transfected cells” value [14] was 98.73 ± 0.68 % of control and the “Relative cell viability, control cells” value [15] was 95.85 ± 2.05 % of control. For the same molecule, the “Relative cell viability, transfected cells” value [15] was 97.97 ± 0.89 % of control, the “Relative cell viability, control cells” value [16] was 98.11 ± 1.29 % of control and the “Relative cell viability, transfected cells” value [16] was 99.16 ± 0.66 % of control. For the same molecule, the “Relative cell viability, control cells” value [17] was 95.83 ± 0.85 % of control, the “Relative cell viability, transfected cells” value [17] was 101.07 ± 0.61 % of control and the “Relative cell viability, control cells” value [18] was 93.21 ± 2.18 % of control. The “Relative cell viability, transfected cells” value [18] was 102.28 ± 0.69 % of control, the “Relative cell viability, control cells” value [19] was 96.00 ± 0.81 % of control and the “Relative cell viability, transfected cells” value [19] was 99.79 ± 0.88 % of control. The “Relative cell viability, control cells” value [20] was 96.60 ± 2.23 % of control, the “Relative cell viability, transfected cells” value [20] was 98.92 ± 1.07 % of control and the “Relative cell viability, control cells” value [21] was 96.08 ± 0.72 % of control. The “Relative cell viability, transfected cells” value [21] was 99.30 ± 0.80 % of control, the “Relative cell viability, control cells” value [22] was 93.50 ± 0.99 % of control and the “Relative cell viability, transfected cells” value [22] was 99.16 ± 1.10 % of control. The “Relative cell viability, control cells” value [23] was 98.24 ± 0.33 % of control, the “Relative cell viability, transfected cells” value [23] was 99.23 ± 0.43 % of control and the “Relative cell viability, control cells” value [24] was 100.55 ± 0.31 % of control. For the same molecule, the “Relative cell viability, transfected cells” value [24] was 99.58 ± 0.58 % of control, the “Relative cell viability, control cells” value [25] was 95.85 ± 5.15 % of control and the “Relative cell viability, transfected cells” value [25] was 105.13 ± 8.07 % of control. The “Relative cell viability, control cells” value [26] was 99.88 ± 5.10 % of control, the “Relative cell viability, transfected cells” value [26] was 106.01 ± 8.03 % of control and the “Relative cell viability, control cells” value [27] was 98.58 ± 5.65 % of control. The “Relative cell viability, transfected cells” value [27] was 105.82 ± 8.04 % of control, the “Relative cell viability, control cells” value [28] was 102.27 ± 5.38 % of control and the “Relative cell viability, transfected cells” value [28] was 109.22 ± 8.33 % of control. The “Relative cell viability, control cells” value [29] was 95.32 ± 3.75 % of control, the “Relative cell viability, transfected cells” value [29] was 96.41 ± 1.41 % of control and the “Relative cell viability, control cells” value [30] was 93.96 ± 4.78 % of control. The “Relative cell viability, transfected cells” value [30] was 97.59 ± 1.08 % of control, the “Relative cell viability, control cells” value [31] was 96.81 ± 3.07 % of control and the “Relative cell viability, transfected cells” value [31] was 98.80 ± 0.86 % of control. For the same molecule, the “Relative cell viability, control cells” value [32] was 96.68 ± 2.77 % of control, the “Relative cell viability, transfected cells” value [32] was 98.11 ± 0.97 % of control and the “decrease of the relative cell viability compared to solvent (DMSO)” value (all uptake transporter overexpressing and control cells) was “less than 20%”.

Reference: patent publication US20250108038A1 (priority 2023, published 2025)
